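Exposure lasted 48 hours, with cells grown in 96-well plates and compounds tested at five concentrations. At the GI50, growth is halved. Definition used: TGI = concentration required for complete inhibition of growth.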 Bounds are passed on as bounds.

One assay relates to MALME-3M melanoma. Description: growth of human tumour cells (NCI), 48 h.
Compound `CCCCN(CCCC)C(=O)C(=O)C(C#N)c1ccc(C)cc1` (configuration not stated) had a TGI of over 100 µM.

For the compound `Cc1ccc(S(=O)(=O)C(CC(=O)N2CCCC2)C(=O)c2ccccc2)cc1` (configuration not stated), the TGI is over 100 µM.

`CC1(C)CC(/C=C2/OC(=O)c3ccccc32)=C(C#N)C(=O)O1` yielded a TGI of over 100 µM.

The compound `Cc1nc2c(nc1Cl)nc(Oc1ccc(Cl)cc1)c1ccccc12` displayed a TGI of over 100 µM.

Compound `CC12CC[C@@H](C(C)(C)O)C1[C@@H](O)CC1(C)C2CCC2[C@@]3(C)CC[C@H](O)C(C)(C)C3C(O)C[C@]21C` (some centres not stated) yielded a TGI of 32.1 µM.

As to `O=C(CI)NC1Oc2ccccc2-c2oc(=O)c(-c3ccccc3)cc21` (configuration not stated), the GI50 is 1.73 µM and the TGI was 3.27 µM.

On to `CCOC(=O)NC(=O)c1cn(C2OC(COC(=O)CCCCCCCCC(=O)OCC3OC(n4cc(C(=O)NC(=O)OCC)c(=O)[nH]c4=O)C(O)C3O)C(O)C2O)c(=O)[nH]c1=O` (configuration not stated), for which the TGI is over 100 µM.

Take `Cc1ccc(C)c(NC(=O)CC/C(=N\NC(=O)C(=O)NN)C(C)C(=O)c2ccc(O)cc2)c1` (configuration not stated): the TGI is over 100 µM.

`N=C1CSC2=NC3=C(CCC/C3=C\c3ccccc3)C(c3ccccc3)N12` (configuration not stated) came in with a TGI of 39.3 µM.

With `COc1ccccc1C1C(C(=O)Nc2ccccc2)=C(C)NC(C)=C1C(=O)Nc1ccccc1`, the TGI is over 100 µM.

`OCc1ccc2[n+](c1)CCC1c3ccccc3NC21` (configuration not stated) registered a TGI of over 300 µM.

Take `Cc1cc2c(cc1C)[n+](=O)c(C(=O)CC(=O)C(=O)Nc1c(C(C)C)cccc1C(C)C)c(C)n2[O-]`: the TGI was over 100 µM.

`COc1ccc(OC)c(NC(=O)C(=O)C(C(C)=O)c2nc3ccc(Cl)cc3[nH]c2=O)c1` (configuration not stated) came in with a TGI of over 50 µM.

For `N#CC(C(=N/O)/C(=N/O)C(C#N)c1ccc(Cl)cc1)c1ccc(Cl)cc1` (configuration not stated), the TGI was over 100 µM.

In a further assay the test system is SNB-19 CNS. Description: growth of human tumour cells (NCI), 48 h.
Consider `CC1(Cl)C(=O)NC(=O)N(C2CC(N=[N+]=[N-])C(CO)O2)C1N=[N+]=[N-]` (configuration not stated), for which the TGI was over 100 µM.

Consider `COc1ccc2ccc3c(c2c1)CN1CCc2cc(OC)c(OC)cc2C1C3` (configuration not stated), for which the TGI was over 100 µM.

`OCCC1(O)CCC(O)CC1` (configuration not stated): the TGI is over 100 µM.

Compound `CCCCNC1=C(C(=O)OCC)C(=O)CO1` displayed a TGI of over 100 µM.

Regarding `CC(C)CC(=O)[O-].CC(C)CC(=O)[O-].N.N.N.N.[Co+3].[O-][Cl+3]([O-])([O-])[O-]`, the GI50 was over 100 µM and the TGI was over 100 µM.

Compound `COc1cc(C2c3cc4c(cc3C(NCC(O)CO)C3COC(=O)[C@H]23)OCO4)cc(OC)c1OC` (some centres not stated) gave a TGI of over 100 µM.

`COC(=O)CC(=O)C[P+](c1ccccc1)(c1ccccc1)c1ccccc1` gave a TGI of over 218 µM.

In the case of `CCCCN(CCCC)C(=O)C(=O)C(C#N)c1ccc(C)cc1` (configuration not stated), the TGI is over 100 µM.

With `Cc1ccc(S(=O)(=O)C(CC(=O)N2CCCC2)C(=O)c2ccccc2)cc1` (configuration not stated), the TGI was over 100 µM.

`CC1(C)CC(/C=C2/OC(=O)c3ccccc32)=C(C#N)C(=O)O1` came in with a TGI of over 100 µM.

With `Cc1nc2c(nc1Cl)nc(Oc1ccc(Cl)cc1)c1ccccc12`, the TGI was over 100 µM.

`CC12CC[C@@H](C(C)(C)O)C1[C@@H](O)CC1(C)C2CCC2[C@@]3(C)CC[C@H](O)C(C)(C)C3C(O)C[C@]21C` (some centres not stated) registered a TGI of 46.5 µM.

With `O=C(CI)NC1Oc2ccccc2-c2oc(=O)c(-c3ccccc3)cc21` (configuration not stated), the GI50 is 2.64 µM and the TGI came out at 7.54 µM.

For the compound `CCOC(=O)NC(=O)c1cn(C2OC(COC(=O)CCCCCCCCC(=O)OCC3OC(n4cc(C(=O)NC(=O)OCC)c(=O)[nH]c4=O)C(O)C3O)C(O)C2O)c(=O)[nH]c1=O` (configuration not stated), the TGI is over 100 µM.

For the compound `Cc1ccc(C)c(NC(=O)CC/C(=N\NC(=O)C(=O)NN)C(C)C(=O)c2ccc(O)cc2)c1` (configuration not stated), the TGI was over 100 µM.

With `N=C1CSC2=NC3=C(CCC/C3=C\c3ccccc3)C(c3ccccc3)N12` (configuration not stated), the TGI stood at 19.9 µM.

`COc1ccccc1C1C(C(=O)Nc2ccccc2)=C(C)NC(C)=C1C(=O)Nc1ccccc1` displayed a TGI of over 100 µM.

With `OCc1ccc2[n+](c1)CCC1c3ccccc3NC21` (configuration not stated), the TGI is over 300 µM.

The compound `Cc1cc2c(cc1C)[n+](=O)c(C(=O)CC(=O)C(=O)Nc1c(C(C)C)cccc1C(C)C)c(C)n2[O-]` registered a TGI of over 100 µM.

`COc1ccc2cc1Oc1ccc(cc1)CC1c3cc(c(OC)cc3CCN1C)Oc1c3c(cc4c1C(C2)N(C)CC4)OCO3` (configuration not stated): the TGI was 31.5 µM.

`COc1ccc(OC)c(NC(=O)C(=O)C(C(C)=O)c2nc3ccc(Cl)cc3[nH]c2=O)c1` (configuration not stated) returned a TGI of over 50 µM.

Regarding `N#CC(C(=N/O)/C(=N/O)C(C#N)c1ccc(Cl)cc1)c1ccc(Cl)cc1` (configuration not stated), the TGI is over 100 µM.

The next assay relates to MOLT-4 leukemia. Description: growth of human tumour cells (NCI), 48 h.
As for `CC1(Cl)C(=O)NC(=O)N(C2CC(N=[N+]=[N-])C(CO)O2)C1N=[N+]=[N-]` (configuration not stated), the TGI is over 100 µM.

For the compound `COc1ccc2ccc3c(c2c1)CN1CCc2cc(OC)c(OC)cc2C1C3` (configuration not stated), the TGI is over 100 µM.

On to `OCCC1(O)CCC(O)CC1` (configuration not stated), for which the TGI is over 100 µM.

As for `CCCCNC1=C(C(=O)OCC)C(=O)CO1`, the TGI is over 100 µM.

Regarding `CC(C)CC(=O)[O-].CC(C)CC(=O)[O-].N.N.N.N.[Co+3].[O-][Cl+3]([O-])([O-])[O-]`, the GI50 is over 100 µM and the TGI was over 100 µM.

For `COc1cc(C2c3cc4c(cc3C(NCC(O)CO)C3COC(=O)[C@H]23)OCO4)cc(OC)c1OC` (some centres not stated), the TGI is over 100 µM.

On to `COC(=O)CC(=O)C[P+](c1ccccc1)(c1ccccc1)c1ccccc1`, for which the TGI is over 218 µM.

Values taken from PubChem BioAssay (NCI).
